Here are results for two compounds from ChEMBL document CHEMBL4665718, “Inhibitory effect of oolonghomobisflavan B on osteoclastogenesis by suppressing p38 MAPK activation” (Bioorg Med Chem Lett, 2020).

The target in series [1] is T1, NF-kappa-B inhibitor alpha (Homo sapiens) (UniProt P25963).
T1 sequence (whole entry): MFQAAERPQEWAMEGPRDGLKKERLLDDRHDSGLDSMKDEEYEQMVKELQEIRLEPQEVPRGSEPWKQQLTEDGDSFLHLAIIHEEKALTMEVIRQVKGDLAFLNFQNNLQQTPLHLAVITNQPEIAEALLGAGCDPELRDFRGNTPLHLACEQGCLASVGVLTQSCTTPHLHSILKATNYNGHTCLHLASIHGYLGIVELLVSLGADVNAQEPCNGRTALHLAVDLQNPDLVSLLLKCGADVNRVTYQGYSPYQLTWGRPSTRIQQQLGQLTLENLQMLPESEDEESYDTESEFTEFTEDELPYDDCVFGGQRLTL
As to the kind of experiment: Inhibition of RANKL-induced IkappaB-alpha activation in BMM (unknown origin) at 5 uM pretreated for 1 hr followed by RANKL stimulation for 5 to 15 mins by Western blot analysis. It is filed as tissue-based.

Series [2] is described as follows: Cytotoxicity against BMM (unknown origin) assessed as reduction in cell viability at 5 uM after 3 days in presence of M-CSF by MTT assay. To be noted: bmdm, 72 h, time 3 day. Type of series: tissue-based.
Series [3] deals with BMDM. The series is described as follows: Inhibition of M-CSF-induced Akt activation in BMM (unknown origin) at 5 uM pretreated for 1 hr followed by M-CSF stimulation for 5 to 30 mins by Western blot analysis. Type of series: tissue-based.
Series [4] concerns BMDM. As to the kind of experiment: Inhibition of p38 MAPK in BMM (unknown origin) assessed as suppression of RANKL/M-CSF-induced Nftac1 upregulation at 5 uM measured after 3 days by Western blot analysis. Type of series: tissue-based. The following applies: time 3.0 day.
In series [5] the test system is BMDM. The series is described as follows: Inhibition of p38 MAPK in BMM (unknown origin) assessed as suppression of RANKL/M-CSF-induced CTSK upregulation at 5 uM measured after 3 days by Western blot analysis. Type of series: tissue-based. The following applies: time 3.0 day.
The test system of series [6] is BMDM. The series is described as follows: Inhibition of p38 MAPK in BMM (unknown origin) assessed as inhibition of RANKL/M-CSF-induced osteoclast differentiation by measuring reduction in TRAP-positive multinucleated cells at 5 uM treated on day 0-2 by TRAP staining based assay relative to control. Type of series: tissue-based. The following applies: time 2.0 day.

The subject of series [7] is BMDM. The series is described as follows: Inhibition of p38 MAPK in BMM (unknown origin) assessed as suppression of RANKL/M-CSF-induced CTSK gene upregulation at 5 uM measured after 3 days by RT-PCR analysis. It is filed as tissue-based. The following applies: time 3.0 day.
Series [8] relates to BMDM. The series is described as follows: Inhibition of RANKL-induced p38 activation in BMM (unknown origin) at 5 uM pretreated for 1 hr followed by RANKL stimulation for 5 to 15 mins by Western blot analysis. Type of series: tissue-based.
The subject of series [9] is BMDM. As to the kind of experiment: Inhibition of RANKL-induced JNK activation in BMM (unknown origin) at 5 uM pretreated for 1 hr followed by RANKL stimulation for 5 to 15 mins by Western blot analysis. It is filed as tissue-based.
The test system of series [10] is BMDM. As to the kind of experiment: Inhibition of p38 MAPK in BMM (unknown origin) assessed as inhibition of RANKL/M-CSF-induced osteoclast differentiation by measuring reduction in TRAP-positive multinucleated cells at 5 uM treated on day 0-4 by TRAP staining based assay. The following applies: time 4.0 day.
The subject of series [11] is BMDM. As to the kind of experiment: Inhibition of p38 MAPK in BMM (unknown origin) assessed as suppression of RANKL/M-CSF-induced Nftac1 gene upregulation at 5 uM measured after 3 days by RT-PCR analysis. To be noted: time 3.0 day. It is filed as tissue-based.
Series [12] concerns BMDM. As to the kind of experiment: Inhibition of RANKL-induced Akt activation in BMM (unknown origin) at 5 uM pretreated for 1 hr followed by RANKL stimulation for 5 to 15 mins by Western blot analysis. Type of series: tissue-based.
In series [13] the test system is BMDM. As to the kind of experiment: Inhibition of p38 MAPK in BMM (unknown origin) assessed as suppression of RANKL/M-CSF-induced DCSTAMP gene upregulation at 5 uM measured after 3 days by RT-PCR analysis. It is filed as tissue-based. To be noted: time 3.0 day.
Series [14] has as its system BMDM. The series is described as follows: Inhibition of p38 MAPK in BMM (unknown origin) assessed as inhibition of RANKL/M-CSF-induced osteoclast differentiation by measuring reduction in TRAP-positive multinucleated cells at 5 uM treated on day 2-4 by TRAP staining based assay relative to control. To be noted: time 3.0 day.
The subject of series [15] is BMDM. The series is described as follows: Inhibition of p38 MAPK in BMM (unknown origin) assessed as suppression of RANKL/M-CSF-induced actin ring formation at 5 uM incubated for 4 days by rhodamine phallodin/DAPI staining based analysis. The following applies: time 4.0 day.
In series [16] the test system is BMDM. The series is described as follows: Inhibition of p38 MAPK in BMM (unknown origin) assessed as suppression of RANKL/M-CSF-induced Acp5 gene upregulation at 5 uM measured after 3 days by RT-PCR analysis. Type of series: tissue-based. To be noted: time 3.0 day.
Series [17] deals with BMDM. The series is described as follows: Inhibition of p38 MAPK in BMM (unknown origin) assessed as suppression of RANKL/M-CSF-induced MMP9 gene upregulation at 5 uM measured after 3 days by RT-PCR analysis. Type of series: tissue-based. The following applies: time 3.0 day.
For series [18], the system named is BMDM. The series is described as follows: Inhibition of RANKL-induced ERK activation in BMM (unknown origin) at 5 uM pretreated for 1 hr followed by RANKL stimulation for 5 to 15 mins by Western blot analysis. It is filed as tissue-based.
Series [19] deals with BMDM. As to the kind of experiment: Inhibition of M-CSF-induced ERK activation in BMM (unknown origin) at 5 uM pretreated for 1 hr followed by M-CSF stimulation for 5 to 30 mins by Western blot analysis. Type of series: tissue-based.
Series [20] relates to BMDM. As to the kind of experiment: Inhibition of p38 MAPK in BMM (unknown origin) assessed as inhibition of M-CSF/RANKL-induced osteoclastogenesis by measuring reduction in multinucleated TRAP+ cells at 5 uM measured after 4 days by TRAP-staining based analysis relative to control. Type of series: cell-based. The following applies: time 4.0 day.
Series [21] has as its system BMDM. The series is described as follows: Inhibition of p38 MAPK in BMM (unknown origin) assessed as inhibition of M-CSF/RANKL-induced osteoclastogenesis by measuring reduction in multinucleated TRAP+ cells measured after 4 days by TRAP-staining based analysis. To be noted: dose microM 1-5, time 4.0 day. Type of series: cell-based.
Series [22] deals with BMDM. The series is described as follows: Modulation of NF-kappaB in Sprague-Dawley rat BMM assessed as inhibition of M-CSF/RANKL-induced osteoclast differentiation by measuring decrease in TRAP-positive multinucleated cells at 100 uM measured after 5 days by TRAP-staining based assay relative to control. Type of series: tissue-based. The following applies: filed as modulator, time 5.0 day.

The source made the active and inactive calls. The rule behind the calls is not given here.

Take `O=C(O[C@@H]1Cc2c(cc(O)c(Cc3c(O)cc(O)c4c3O[C@H](c3cc(O)c(O)c(O)c3)[C@H](OC(=O)c3cc(O)c(O)c(O)c3)C4)c2O)O[C@@H]1c1cc(O)c(O)c(O)c1)c1cc(O)c(O)c(O)c1`: the inhibition result (in series [1]; in the series on BMDM [3]; in the series on BMDM [9]; in the series with BMDM [12]; in the series on BMDM [18]; in the series on BMDM [19]) was “inactive” throughout. Further, the Activity result in series [2] was “Non-Toxic”. The inhibition result in the series on BMDM [4], with BMDM [5], with BMDM [7], in the series on BMDM [8], in the series with BMDM [10] and in the series with BMDM [11] was “Active” in each case. The inhibition entry in the series with BMDM [13], with BMDM [15], in the series with BMDM [16] and with BMDM [17] was “Active” each time. Moreover, the inhibition was 95.9% in the series on BMDM [6], 34.5% with BMDM [14], 98.1% in the series on BMDM [20] and “Dose-dependent effect” with BMDM [21].
Consider `O=C(O[C@@H]1Cc2c(O)cc(O)cc2O[C@@H]1c1cc(O)c(O)c(O)c1)c1cc(O)c(O)c(O)c1`, for which the inhibition with BMDM [22] was 92%.
